In patent US7723358B2, “Aroyl-O-piperidine derivatives for the treatment of diabetes-related problems” (Merck Patent GmbH, priority 2004, dated 2010):

Tests used:
[1] = test system: apo B secretion in HepG2 cells; assay: Secretion of apo B in the HepG2 human cell line (sandwich-ELISA); assay type: cell-based; conditions: 24 hours incubation, culture supernatant, read-out: IC50, concentration that produces a 50% inhibition of apo B secretion in the HepG2 cells
Protocol: Analysis of the Secretion of apo B in the HepG2 Human Cell Line:
The activity of a compound according to the invention can be evaluated by measuring the inhibition of apo B secretion in HepG2 cells.
The HepG2 cells (ECACC—No. 85011430) are used as model in the study of the in vitro hepatic secretion of lipoproteins (Dixon J. and Ginsberg H., J., Lipid. Res., 1993, 34, 167-179).
The HepG2 cells are cultured in Dulbecco's modified Eagle's medium comprising 10% foetal calf serum (DMEM and FBS—Gibco) in 96-well plates under an atmosphere of 5% carbon dioxide for 24 hours (about 70% confluence).
The test compounds are dissolved at a concentration of 2 or 10 mM in dimethyl sulfoxide (DMSO). Serial dilutions (1:3.16) are made in DMSO and are added (1:200—Robot Multimek Beckman) to the growth medium (200 μL) and then finally incubated for 24 hours in the various wells containing the HepG2 cells.
The 24-hour culture supernatant diluted to 1:5 (phosphate-buffered saline:PBS comprising 1% bovine serum albumin) is tested according to a sandwich-ELISA method specific for human apo B.
The results are expressed in terms of IC50, i.e. the concentration that produces a 50% inhibition of apo B secretion in the HepG2 cells.

[2] = biological target: T1, microsomal triglyceride transfer protein (MTP) (Mesocricetus auratus, UniProt P55158); assay: Inhibition of MTP activity: transfer of [3H]-triolein from donor liposomes to biotinylated LDL, SPA; assay type: biochemical; conditions: MTP from golden hamster liver; incubation 18-24 hours at 37° C.; read-out: IC50, concentration that allows a 50% inhibition of MTP
T1 construct: The supernatant comprising the soluble MTP is dialysed against Tris/HCl 150 mM; from tissue; host or cells: golden hamster liver microsomes, deoxycholate-solubilised supernatant, dialysed
T1 sequence (P55158 19-895): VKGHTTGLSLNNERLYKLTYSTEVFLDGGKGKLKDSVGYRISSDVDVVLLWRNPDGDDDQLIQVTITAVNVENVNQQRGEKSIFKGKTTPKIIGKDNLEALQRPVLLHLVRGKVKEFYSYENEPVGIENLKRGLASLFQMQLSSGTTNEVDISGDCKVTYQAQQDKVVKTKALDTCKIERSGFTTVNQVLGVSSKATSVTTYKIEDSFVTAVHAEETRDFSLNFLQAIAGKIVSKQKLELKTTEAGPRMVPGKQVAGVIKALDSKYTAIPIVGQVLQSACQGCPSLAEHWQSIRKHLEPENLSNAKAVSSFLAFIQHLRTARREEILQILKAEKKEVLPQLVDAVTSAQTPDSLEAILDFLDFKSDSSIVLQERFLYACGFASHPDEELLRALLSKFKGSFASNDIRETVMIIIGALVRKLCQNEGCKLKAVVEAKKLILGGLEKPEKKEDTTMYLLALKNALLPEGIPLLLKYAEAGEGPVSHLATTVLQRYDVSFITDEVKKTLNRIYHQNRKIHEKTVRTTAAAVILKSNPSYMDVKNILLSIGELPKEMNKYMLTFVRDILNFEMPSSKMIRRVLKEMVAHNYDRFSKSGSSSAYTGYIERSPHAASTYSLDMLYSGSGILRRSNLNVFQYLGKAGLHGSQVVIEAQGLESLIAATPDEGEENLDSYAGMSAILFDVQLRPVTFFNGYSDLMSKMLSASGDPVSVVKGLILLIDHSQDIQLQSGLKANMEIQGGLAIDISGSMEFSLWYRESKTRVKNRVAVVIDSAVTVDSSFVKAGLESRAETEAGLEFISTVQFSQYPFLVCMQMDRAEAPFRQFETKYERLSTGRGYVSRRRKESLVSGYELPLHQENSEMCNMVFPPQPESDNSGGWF
In short: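 Soluble MTP was extracted with deoxycholate from golden hamster liver microsomes. It was incubated with [3H]-triolein/phosphatidylcholine donor liposomes, biotinylated LDL acceptors and compound in DMSO in HEPES/NaCl/BSA buffer, pH 7.4, for 18-24 h at 37° C. Transfer was read with streptavidin SPA beads, and IC50 was taken as 50% inhibition of transfer.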

Row | Compound | IC50 [1] [nM] | IC50 [2] [nM]
1 | COCCOC(=O)N1CCC(Oc2cccc(NC(=O)c3ccccc3-c3ccc(C(F)(F)F)cc3)c2)CC1 [Example 75, 2-methoxyethyl 4-[3-[[[4′-(trifluoromethyl)-[1,1′-biphenyl]-2-yl]carbonyl]amino]-phenoxy]-1 piperidinecarboxylate] | 39.8 | 130
2 | Cc1cccc(C(=O)Nc2cccc(OC3CCN(C(=O)OCc4ccccc4)CC3)c2)c1-c1ccc(OC(F)(F)F)cc1 [Example 7, phenylmethyl 4-[3-[[[6-methyl-4′-(trifluoro-methoxy)[1,1′-biphenyl]-2-yl]carbonyl]-amino]phenoxy]-1-piperidinecarboxylate] | 17 | 45.2
3 | COC(=O)c1ccc(NC(=O)N2CCC(Oc3cccc(NC(=O)c4cccc(C)c4-c4ccc(OC(F)(F)F)cc4)c3)CC2)cc1 [Example 55, methyl 4-[[[4-[3-[[[6-methyl-4′-(trifluoro-methoxy)[1,1′-biphenyl]-2-yl]carbonyl]-amino]phenoxy]-1-piperidinyl]carbonyl]-amino]benzoate] | 46.6 | 208
4 | Cc1cccc(C(=O)Nc2cccc(OC3CCN(Cc4cccnc4)CC3)c2)c1-c1ccc(OC(F)(F)F)cc1 [Example 81, 6-methyl-N-[3-[[1-(3-pyridinylmethyl)-4-piperidinyl]oxy]phenyl]-4′-(trifluorometh-oxy)[1,1′-biphenyl]-2-carboxamide] | – | 315
5 | Cc1cccc(CN2CCC(Oc3cccc(NC(=O)c4cccc(C)c4-c4ccc(OC(F)(F)F)cc4)c3)CC2)n1 [Example 83, 6-methyl-N-[3-[[1-[(6-methyl-2-pyridinyl)-methyl]-4-piperidinyl]oxy]phenyl]-4′-(trifluoromethoxy)[1,1′-biphenyl]-2-carboxamide] | – | 633
6 | COC(=O)CCC(=O)N1CCC(Oc2cccc(NC(=O)c3ccccc3-c3ccc(OC(F)(F)F)cc3)c2)CC1 [Example 133, methyl γ-oxo-4-[3-[[[4′-(trifluoromethoxy)-[1,1′-biphenyl]-2-yl]carbonyl]amino]-phenoxy]-1-piperidinebutanoate] | – | 296
7 | Cc1cccc(C(=O)Nc2cccc(OC3CCN(CC4CCOC4)CC3)c2)c1-c1ccc(OC(F)(F)F)cc1 (stereo not shown) [Example 78, 6-methyl-N-[3-[[1-[(tetrahydro-3-furanyl)-methyl]-4-piperidinyl]oxy]phenyl]-4′-(tri-fluoromethoxy)[1,1′-biphenyl]-2-carbox-amide] | – | 447
8 | Cc1ccc(NC(=O)N2CCC(Oc3cccc(NC(=O)c4cccc(C)c4-c4ccc(OC(F)(F)F)cc4)c3)CC2)cc1 [Example 29, N-(4-methylphenyl)-4-(3-[[[6-methyl-4′-(trifluoromethoxy)[1,1′-biphenyl]-2-yl]-carbonyl]amino]phenoxy]-1-piperidine-carboxamide] | – | 268
9 | Cc1cccc(C(=O)Nc2cccc(OC3CCN(C(=O)c4ccco4)CC3)c2)c1-c1ccc(OC(F)(F)F)cc1 [Example 111, N-[3-[[1-(2-furanylcarbonyl)-4-piperidinyl]-oxy]phenyl]-6-methyl-4′-(trifluorometh-oxy)[1,1′-biphenyl]-2-carboxamide] | – | 409
10 | Cc1cccc(C(=O)Nc2cccc(OC3CCN(Cc4cc5ccccc5o4)CC3)c2)c1-c1ccc(OC(F)(F)F)cc1 [Example 60, N-[3-[[1-(2-benzofuranylmethyl)-4-piperi-dinyl]oxy]phenyl]-6-methyl-4′-(trifluoro-methoxy)-[1,1′-biphenyl]-2-carboxamide] | – | 240
11 | Cc1cccc(C(=O)Nc2cccc(OC3CCN(C(=O)NC4CCCCC4)CC3)c2)c1-c1ccc(OC(F)(F)F)cc1 [Example 34, N-cyclohexyl-4-[3-[[[6-methyl-4′-(trifluoro-methoxy)[1,1′-biphenyl]-2-yl]carbonyl]-amino]phenoxy]-1-piperidinecarboxamide] | – | 296
12 | Cc1ccc(C(=O)N2CCC(Oc3cccc(NC(=O)c4ccccc4-c4ccc(OC(F)(F)F)cc4)c3)CC2)cc1 [Example 130, N-[3-[[1-(4-methylbenzoyl)-4-piperidinyl]-oxy]phenyl]-4′-(trifiuoromethoxy)[1,1′-biphenyl]-2-carboxamide] | – | 219
13 | O=C(Nc1cccc(OC2CCN(C(=O)c3ccccc3)CC2)c1)c1ccccc1-c1ccc(OC(F)(F)F)cc1 [Example 119, N-[3-[(1-benzoyl-4-piperidinyl)oxy]phenyl]-4′-(trifluoromethoxy)[1,1′-biphenyl]-2-carboxamide] | – | 661
14 | COc1ccc(C(=O)N2CCC(Oc3cccc(NC(=O)c4ccccc4-c4ccc(OC(F)(F)F)cc4)c3)CC2)cc1 [Example 138, N-[3-[[1-(4-methoxybenzoyl)-4-piperidin-yl]oxy]phenyl]-4′-(trifluoromethoxy)[1,1′-biphenyl]-2-carboxamide] | – | 221
15 | Cc1ccc(C(=O)N2CCC(Oc3cccc(NC(=O)c4cccc(C)c4-c4ccc(OC(F)(F)F)cc4)c3)CC2)cc1 [Example 116, 6-methyl-N-[3-[[1-(4-methylbenzoyl)-4-piperidinyl]oxy]phenyl]-4′-(trifluorometh-oxy)[1,1′-biphenyl]-2-carboxamide] | – | 49.4

The remaining lines, values ahead:

Row | IC50 [1] [nM] | IC50 [2] [nM] | Compound
16 | 1.6 | 33.3 | COCCOC(=O)N1CCC(Oc2cccc(NC(=O)c3cccc(C)c3-c3ccc(OC(F)(F)F)cc3)c2)CC1 [Example 73, 2-methoxyethyl 4-[3-[[[6-methyl-4′-(trifluoromethoxy)[1,1′-biphenyl]-2-yl]-carbonyl]amino]phenoxy]-1-piperidine-carboxylate]
17 | 0.8 | 45.1 | COC(=O)N1CCC(Oc2cccc(NC(=O)c3cccc(C)c3-c3ccc(OC(F)(F)F)cc3)c2)CC1 [Example 5, methyl 4-[3-[[[6-methyl-4′-(trifluoro-methoxy)[1,1′-biphenyl]-2-yl]carbonyl]-amino]phenoxy]-1-piperidinecarboxylate]
18 | 66.3 | 195 | COc1ccc(CNC(=O)N2CCC(Oc3cccc(NC(=O)c4cccc(C)c4-c4ccc(OC(F)(F)F)cc4)c3)CC2)cc1 [Example 52, N-[(4-methoxyphenyl)methyl]-4-[3-[[[6-methyl-4′-(trifluoromethoxy)[1,1′-biphenyl]-2-yl]carbonyl]amino]phenoxy]-1-piperidinecarboxamide]
19 | 53 | 86.9 | CCNC(=O)N1CCC(Oc2cccc(NC(=O)c3cccc(C)c3-c3ccc(OC(F)(F)F)cc3)c2)CC1 [Example 12, N-ethyl-4-[3-[[[6-methyl-4′-(trifluoro-methoxy)[1,1′-biphenyl]-2-yl]carbonyl]-amino]phenoxy]-1-piperidinecarboxamide]
20 | 4 | 47.6 | CCOC(=O)N1CCC(Oc2cccc(NC(=O)c3cccc(C)c3-c3ccc(OC(F)(F)F)cc3)c2)CC1 [Example 6, ethyl 4-[3-[[[6-methyl-4′-(trifluoromethoxy)-[1,1′-biphenyl]-2-yl]carbonyl]amino]-phenoxy]-1-piperidinecarboxylate]
21 | 33.1 | 45.5 | CCCCCCNC(=O)N1CCC(Oc2cccc(NC(=O)c3cccc(C)c3-c3ccc(OC(F)(F)F)cc3)c2)CC1 [Example 41, N-hexyl-4-[3-[[[6-methyl-4′-(trifluorometh-oxy)[1,1′-biphenyl]-2-yl]carbonyl]amino]-phenoxy]-1-piperidinecarboxamide]
22 | – | 344 | CC(=O)N1CCC(Oc2cccc(NC(=O)c3cccc(C)c3-c3ccc(OC(F)(F)F)cc3)c2)CC1 [Example 4, N-[3-[(1-acetyl-4-piperidinyl)oxy]phenyl]-6-methyl-4′-(trifluoromethoxy)[1,1′-biphenyl]-2-carboxamide]
